In patent US20120270864A1, “2-QUINOLINONE AND 2-QUINOXALINONE-DERIVATIVES AND THEIR USE AS ANTIBACTERIAL AGENTS” (ASTRAZENECA AB, priority 2006, published 2012):

Tested on: Staphylococcus aureus (Sau) 516 cells
Test: Bacterial Susceptibility Testing Methods 2 (microbroth dilution, growth inhibition)
Assay type: cell-based
Description: Compounds may be tested for antimicrobial activity by susceptibility testing using microbroth dilution methods recommended by CSLI. Compounds may be dissolved in dimethylsulfoxide and tested in 10 doubling dilutions in the susceptibility assays such that the final dimethylsulfoxide concentration in the assay is 2% (v/v). The Staphylococcus aureus (Sau) 516 cells used in the assay may be grown overnight on appropriate agar media and then suspended in the NCCLS-recommended liquid susceptibility-testing media. […] Plates may be incubated under appropriate conditions of atmosphere and temperature and for times according to NCCLS standard methods prior to being read. As used in Table 1 below, the term “inhibition” refers to the percentage of Staphylococcus aureus 516 cell growth that is suppressed (compared to an untreated sample) by the compound of the indicated example number. When tested in the above in-vitro assay, the compounds and salts of the example numbers listed below were tested at the indicated concentrations, providing the indicated inhibitions. In most instances, the highest concentrations at which the compounds were tested was 8 μg/mL. In some instances, however, compounds were tested at concentrations higher than 8 μg/mL, typically when the concentration was first measured in μM and was subsequently converted to μg/mL. In those cases in which compounds were tested at more than one concentration higher than 8 μg/mL, the concentration closest to 8 μg/mL is provided below.

[1] = Tested Concentration 12 μg/mL, Staphylococcus aureus 516 cell growth
[2] = Staphylococcus aureus, Tested Concentration 8 μg/mL, Staphylococcus aureus 516 cell growth suppressed compared to untreated sample
[3] = Tested Concentration 8 μg/mL, Staphylococcus aureus 516 cell growth suppressed compared to untreated sample
[4] = Staphylococcus aureus, Tested Concentration 14 μg/mL, Staphylococcus aureus 516 cell growth

COc1ccc2ncc(=O)n(CCN3CCC(NCc4ccc5c(n4)NC(=O)CO5)C(F)C3)c2c1 (single isomer, unassigned) [Example 40, 6-[({3-Fluoro-1-[2-(7-methoxy-2-oxoquinoxalin-1(2H)-yl)ethyl]piperidin-4-yl}amino)methyl]-2H-pyrido[3,2-b][1,4]oxazin-3 (4H)-one]
Inhibition (%) [1]: 100%

COc1ccc2ncc(=O)n(CCN3CC[C@@H](NCc4ccc5c(n4)NC(=O)CO5)[C@H](OC)C3)c2c1 [Example 28, 6-[({(3R,4R)-3-Methoxy-1-[2-(7-methoxy-2-oxoquinoxalin-1(2H)-yl)ethyl]piperidin-4-yl}amino)methyl]-2H-pyrido[3,2-b][1,4]oxazin-3(4H)-one]
inhibition at 8 µg/mL [2]: 98%

N#Cc1ccc2ccc(=O)n(CCN3CC[C@H](NCc4ccc5c(n4)NC(=O)CS5)[C@H](O)C3)c2c1 [Example 3, 1-[2-((3R,4S)-3-Hydroxy-4-{[(3-oxo-3,4-dihydro-2H-pyrido[3,2-b][1,4]thiazin-6-yl)methyl]amino}piperidin-1-yl)ethyl]-2-oxo-1,2-dihydroquinoline-7-carbonitrile]
inhibition at 8 µg/mL [2]: 99%

CO[C@H]1CN(CCn2c(=O)ccc3ccc(C#N)cc32)CC[C@H]1NCc1ccc2c(n1)NC(=O)CS2 [Example 21, 1-[2-((3S,4R)-3-M ethoxy-4-{[(3-oxo-3,4-dihydro-2H-pyrido[3,2-b][1,4]thiazin-6-yl)methyl]amino}piperidin-1-yl)ethyl]-2-oxo-1,2-dihydro quino line-7-carbonitrile]
inhibition at 8 µg/mL [2]: 100%

COc1ccc2ncc(=O)n(CCN3CC[C@H](NCc4ccc5c(n4)NC(=O)CS5)[C@H](O)C3)c2c1 [Example 9]
Inhibition (%) [3]: 100%

COc1ccc2ncc(=O)n(CCN3CCC(NCc4cc5c(cn4)OCCO5)C(O)C3)c2c1 (single isomer, unassigned) [Example 29, 1-(2-{4-[(2,3-Dihydro[1,4]dioxino[2,3-c]pyridin-7-ylmethyl)amino]-3-hydroxypiperidin-1-yl}ethyl)-7-methoxyquinoxalin-2(1H)-one]
inhibition at 8 µg/mL [2]: 84%

COc1ccc2ncc(=O)n(CCN3CC[C@@H](NCc4cc5c(cn4)OCCO5)[C@H](OC)C3)c2c1 [Example 27, 1-(2-{(3R,4R)-4-[(2,3-Dihydro[1,4]dioxino[2,3-c]pyridin-7-ylmethyl)amino]-3-methoxypiperidin-1-yl}ethyl)-7-methoxyquinoxalin-2(1H)-one]
inhibition at 8 µg/mL [2]: 87%

N#Cc1ccc2ccc(=O)n(CCN3CC[C@@H](NCc4ccc5c(n4)NC(=O)CO5)[C@@H](F)C3)c2c1 [Example 50, 1-[2-((3S,4R)-3-Fluoro-4-{[(3-oxo-3,4-dihydro-2H-pyrido[3,2-b][1,4]oxazin-6-yl)methyl]amino}piperidin-1-yl)ethyl]-2-oxo-1,2-dihydro quino line-7-carbonitrile]
inhibition at 14 µg/mL [4]: 100%

N#Cc1ccc2ccc(=O)n(CCN3CCC(NCc4cc5c(cn4)OCCO5)C(F)C3)c2c1 (single isomer, unassigned) [Example 33, 1-(2-{4-[(2,3-Dihydro[1,4]dioxino[2,3-c]pyridin-7-ylmethyl)amino]-3-fluoropiperidin-1-yl}ethyl)-2-oxo-1,2-dihydroquinoline-7-carbonitrile]
inhibition at 13 µg/mL (Staphylococcus aureus, Tested Concentration 13 μg/mL, Staphylococcus aureus 516 cell growth): 96%

COc1ccc2ncc(=O)n(CCN3CC[C@H](NCc4cc5c(cn4)OCCO5)[C@H](OC)C3)c2c1 [Example 16, 1-(2-{(3R,4S)-4-[(2,3-Dihydro[1,4]dioxino[2,3-c]pyridin-7-ylmethyl)amino]-3-methoxypiperidin-1-yl}ethyl)-7-methoxyquinoxalin-2(1H)-one]
inhibition at 8 µg/mL [2]: 97%

COc1ccc2ncc(=O)n(CCN3CCC(NCc4cc5c(cn4)OCCO5)C(F)C3)c2c1 (single isomer, unassigned) [Example 39, 1-(2-{4-[(2,3-Dihydro[1,4]dioxino[2,3-c]pyridin-7-ylmethyl)amino]-3-fluoropiperidin-1-yl}ethyl)-7-methoxyquinoxalin-2(1H)-one]
Inhibition (%) (Tested Concentration 14 μg/mL, Staphylococcus aureus 516 cell growth): 100%

COc1ccc2ncc(=O)n(CCN3CCC(NCc4ccc5c(n4)NC(=O)CO5)C(O)C3)c2c1 (single isomer, unassigned) [Example 32, 6-[({3-Hydroxy-1-[2-(7-methoxy-2-oxoquinoxalin-1(2H)-yl)ethyl]piperidin-4-yl}amino)methyl]-2H-pyrido[3,2-b][1,4]oxazin-3 (4H)-one]
Inhibition (%) [3]: 98%

N#Cc1ccc2ccc(=O)n(CCN3CCC(NCc4ccc5c(n4)NC(=O)CO5)C(F)C3)c2c1 (stereo not shown) [Example 34]
Inhibition (%) [1]: 91%

N#Cc1ccc2ccc(=O)n(CCN3CCC(NCc4ccc5c(n4)NC(=O)CO5)C(F)C3)c2c1 (single isomer, unassigned) [Example 38, 1-[2-(3-Fluoro-4-{[(3-oxo-3,4-dihydro-2H-pyrido[3,2-b][1,4]oxazin-6-yl)methyl]amino}piperidin-1-yl)ethyl]-2-oxo-1,2-dihydro quino line-7-carbonitrile]
inhibition at 12 µg/mL (Staphylococcus aureus, Tested Concentration 12 μg/mL, Staphylococcus aureus 516 cell growth): 100%

CO[C@@H]1CN(CCn2c(=O)ccc3ccc(C#N)cc32)CC[C@H]1NCc1cc2c(cn1)OCCO2 [Example 41, 1-(2-{(3R,4R)-4-[(2,3-dihydro[1-yl]dioxino[2,3-c]pyridin-7-ylmethyl)amino]-3-methoxypiperidin-1-yl}ethyl)-2-oxo-1,2-dihydro quinoline-7-carbonitrile]
Inhibition (%) [3]: 100%

N#Cc1ccc2ccc(=O)n(CCN3CCC(NCc4cc5c(cn4)OCCO5)C(F)C3)c2c1 (single isomer, unassigned) [Example 37, 1-(2-{4-[(2,3-Dihydro[1,4]dioxino[2,3-c]pyridin-7-ylmethyl)amino]-3-fluoropiperidin-1-yl}ethyl)-2-oxo-1,2-dihydroquinoline-7-carbonitrile]
Inhibition (%) (Tested Concentration 13 μg/mL, Staphylococcus aureus 516 cell growth): 100%

CO[C@H]1CN(CCn2c(=O)cc(C)c3ccc(C#N)cc32)CC[C@H]1NCc1ccc2c(n1)NC(=O)CO2 [Example 51, 1-[2-((3S,4R)-3-Methoxy-4-{[(3-oxo-3,4-dihydro-2H-pyrido[3,2-b][1,4]oxazin-6-yl)methyl]amino}piperidin-1-yl)ethyl]-4-methyl-2-oxo-1,2-dihydro quino line-7-carbonitrile]
inhibition at 9 µg/mL (Staphylococcus aureus, Tested Concentration 9 μg/mL, Staphylococcus aureus 516 cell growth): 100%

CO[C@@H]1CN(CCn2c(=O)ccc3ccc(C#N)cc32)CC[C@@H]1NCc1ccc2c(n1)NC(=O)CS2 [Example 24, 1-[2-((3R,4S)-3-Methoxy-4-{[(3-oxo-3,4-dihydro-2H-pyrido[3,2-b][1,4]thiazin-6-yl)methyl]amino}piperidin-1-yl)ethyl]-2-oxo-1,2-dihydro quino line-7-carbonitrile]
inhibition at 8 µg/mL [2]: 100%

COc1ccc2ncc(=O)n(CCN3CC[C@@H](NCc4ccc5c(n4)NC(=O)CO5)[C@@H](O)C3)c2c1 [Example 11, 6-[({(3S,4R)-3-Hydroxy-1-[2-(7-methoxy-2-oxoquinoxalin-1(2H)-yl)ethyl]piperidin-4-yl}amino)methyl]-2H-pyrido[3,2-b][1,4]oxazin-3(4H)-one]
inhibition at 8 µg/mL [2]: 100%

COc1ccc2ncc(=O)n(CCN3CC[C@H](NCc4ccc5c(n4)NC(=O)CS5)[C@H](OC)C3)c2c1 [Example 18]
Inhibition (%) [3]: 95%

COc1ccc2ncc(=O)n(CCN3CC[C@H](NCc4ccc5c(n4)NC(=O)CO5)[C@H](F)C3)c2c1 [Example 46, 6-[({(3R,4S)-3-Fluoro-1-[2-(7-methoxy-2-oxoquinoxalin-1(2H)-yl)ethyl]piperidin-4-yl}amino)methyl]-2H-pyrido[3,2-b][1,4]oxazin-3 (4H)-one]
inhibition at 8 µg/mL [2]: 100%

N#Cc1ccc2ccc(=O)n(CCN3CC[C@@H](NCc4ccc5c(n4)NC(=O)CS5)[C@@H](O)C3)c2c1 [Example 6, 1-[2-((3S,4R)-3-Hydroxy-4-{[(3-oxo-3,4-dihydro-2H-pyrido[3,2-b][1,4]thiazin-6-yl)methyl]amino}piperidin-1-yl)ethyl]-2-oxo-1,2-dihydro quino line-7-carbonitrile]
inhibition at 8 µg/mL [2]: 99%

CO[C@@H]1CN(CCn2c(=O)ccc3ccc(C#N)cc32)CC[C@@H]1NCc1ccc2c(n1)NC(=O)CO2 [Example 23, 1-[2-((3R,4S)-3-M ethoxy-4-{[(3-oxo-3,4-dihydro-2H-pyrido[3,2-b][1,4]oxazin-6-yl)methyl]amino}piperidin-1-yl)ethyl]-2-oxo-1,2-dihydro quino line-7-carbonitrile]
inhibition at 8 µg/mL [2]: 100%

COc1ccc2ncc(=O)n(CCN3CCC(NCc4cc5c(cn4)OCCO5)C(F)C3)c2c1 (single isomer, unassigned) [Example 35, 1-(2-{4-[(2,3-Dihydro[1,4]dioxino[2,3-c]pyridin-7-ylmethyl)amino]-3-fluoropiperidin-1-yl}ethyl)-7-methoxyquinoxalin-2(1H)-one]
inhibition at 14 µg/mL [4]: 100%

COc1ccc2ncc(=O)n(CCN3CC[C@@H](NCc4cc5c(cn4)OCCO5)[C@@H](OC)C3)c2c1 [Example 14, 1-(2-{(3S,4R)-4-[(2,3-Dihydro[1,4]dioxino[2,3-c]pyridin-7-ylmethyl)amino]-3-methoxypiperidin-1-yl}ethyl)-7-methoxyquinoxalin-2(1H)-one]
inhibition at 8 µg/mL [2]: 100%
